The numbers were not newly measured in patent publication US20090197815A1, “COMBINATION OF SOMATOSTATIN-ANALOGS WITH DOPAMINE- OR GROWTH HORMONE RECEPTOR ANTAGONIST” (priority 2006, published 2009), which cites them from elsewhere.

Read-outs that look alike come from different tables or passages of the source.

In data set [1] the test system is patients with acromegaly.
Data set [2] concerns acromegalic patients. The settings on record: cabergoline 1-3.5 mg/week added to depot SSA at maximum registered dose, 19 patients.
Data set [3] relates to patients with acromegaly. The following applies: daily subcutaneous monotherapy.
The test system of data set [4] is acromegalic patients.

In the case of `C[C@@H](O)[C@@H]1NC(=O)[C@H](CCCCN)NC(=O)[C@@H](Cc2c[nH]c3ccccc23)NC(=O)[C@H](Cc2ccccc2)NC(=O)[C@@H](NC(=O)[C@H](N)Cc2ccccc2)CSSC[C@@H](C(=O)N[C@H](CO)[C@@H](C)O)NC1=O` [Sandostatin®, octreotide acetate], in the data set with patients with acromegaly [1], the “normalization of IGF-I” value is “approximately 60 % of cases”, the “patients with GH levels decreasing to <2.0 μg/L” value is given as 40 % of patients and the “patients with GH levels decreasing to <5.0 μg/L” value is 65 % of patients.
In the case of `C=CCN1C[C@H](C(=O)N(CCCN(C)C)C(=O)NCC)C[C@@H]2c3cccc4[nH]cc(c34)C[C@H]21` [cabergoline], in the data set on acromegalic patients [2], the “normalization of IGF1” value is on record as 42 % patients; the “normalized both biochemical markers (GH<2.5 μg/L and IGF1 for age)” value is listed as 16 % of patients; the “reduction of GH<2.5 μg/L” value is recorded as 21 % of patients.
For pegvisomant, in the data set on patients with acromegaly [3], the “change of GH concentrations during therapy” value is recorded as “increased by nearly twofold”, the “normalization of circulating IGF-I levels” value was 80 to 90 % of patients and the tolerability result is given as “good tolerability”. The IGF-I concentration normal in the data set with acromegalic patients [4] (after 18 weeks, at least 50 mg pegvisomant per week, with monthly 30 mg Sandostatin LAR or 120 mg lanreotide Autogel) is given as 81 % of patients. Moreover, the IGF-I concentration normal in the data set with acromegalic patients [4] (at week 42, weekly pegvisomant with monthly 30 mg Sandostatin LAR or 120 mg lanreotide Autogel) is given as 95 % of patients. For the same molecule, the “median weekly dose needed to return IGF-I concentration to normal” value with acromegalic patients [4] (combined with monthly long-acting SSA, range 40-80 mg) is listed as 60 mg. Besides, in the data set on acromegalic patients [4] (from week 12, independent from pegvisomant dose, 10 patients, combined with long-acting SSA), the “patients with mild non-progressive increases in liver transaminases” value is given as 38%.
